Measurements taken from patent US11820745B2, “PKC-activating compounds for the treatment of neurodegenerative diseases” (Synaptogenix, Inc., priority 2008, dated 2023).

Experiments:
[1] = system: Aβ; assay: Degradation of exogenously applied Aβ in SH-SY5Y neuroblastoma cells; type: cell-based, human; conditions: 0.01 to 10 μM; 100 nM exogenous monomeric Aβ-42; 24 h; FIG. 8
Procedure: Cell culture. Rat hippocampal H19-71GF-IR cells (ATCC, Manassas, Va.) were plated onto poly-L-lysine coated plates and grown at 35° C. in DMEM/10% FCS for several days until about 50% coverage was obtained. The cells were then induced to differentiate into a neuronal phenotype by replacing the medium with 5 ml N2 medium containing 10 ng/ml basic fibroblast growth factor at 39° C. and grown in T-75 flasks at 37° C. Human SH-SY5Y neuroblastoma cells (ATCC) were cultured in 45% F12K/45% MEM/10% FCS. Mouse N2A neuroblastoma cells were cultured in DMEM/10% FCS without glutamine. Rat hippocampal neurons from 18-day-old embryonic
AB Measurement and Cell Viability Assay. Aβ was measured using an Aβ1-42 human fluorimetric ELISA kit (Invitrogen) according to the manufacturer's instructions. Results were measured in a Biotek Synergy HT microplate reader. AlamarBlue and CyQuant NF (Invitrogen) according to the manufacturer's instructions.
To determine whether the reduced levels of AP caused by PKC activators were due to inhibition of Aβ synthesis or activation of Aβ degradation, we applied BR-111 (DHA-CP6) (0.01 to 10 μM) and low concentrations (100 nM) of exogenous monomeric Aβ-42 to cultured SH-SY5Y cells. This concentration of Aβ is too low to produce measurable toxicity or cell death. […]

[2] = molecular target: T1, PKCε (Homo sapiens, UniProt Q02156); assay: Protein kinase C assay, purified/recombinant PKC epsilon (32P incorporation into histones); type: biochemical
T1 construct: purchased Calbiochem
T1 sequence (Q02156 1-737): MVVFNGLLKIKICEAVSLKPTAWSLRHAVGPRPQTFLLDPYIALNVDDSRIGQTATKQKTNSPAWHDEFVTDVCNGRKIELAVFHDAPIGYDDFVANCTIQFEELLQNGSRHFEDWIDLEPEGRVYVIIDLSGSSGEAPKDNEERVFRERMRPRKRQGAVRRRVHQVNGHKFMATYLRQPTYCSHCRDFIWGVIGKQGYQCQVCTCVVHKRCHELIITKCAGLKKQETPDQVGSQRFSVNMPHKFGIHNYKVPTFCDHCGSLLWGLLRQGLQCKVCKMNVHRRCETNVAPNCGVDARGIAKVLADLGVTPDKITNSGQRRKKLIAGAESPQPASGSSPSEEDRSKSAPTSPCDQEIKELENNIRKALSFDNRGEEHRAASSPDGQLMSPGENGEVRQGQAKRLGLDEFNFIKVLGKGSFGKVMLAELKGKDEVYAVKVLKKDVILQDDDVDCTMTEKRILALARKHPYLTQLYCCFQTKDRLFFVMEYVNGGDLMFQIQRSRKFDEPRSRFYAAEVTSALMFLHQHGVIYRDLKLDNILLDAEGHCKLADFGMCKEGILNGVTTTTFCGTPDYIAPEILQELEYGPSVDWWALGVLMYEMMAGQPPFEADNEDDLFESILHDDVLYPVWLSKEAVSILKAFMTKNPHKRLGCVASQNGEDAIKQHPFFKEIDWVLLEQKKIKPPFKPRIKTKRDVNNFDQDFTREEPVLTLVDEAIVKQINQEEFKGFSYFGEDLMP
Procedure: (§1) Protein kinase C assay. Recombinant PKC (1 ng of alpha or epsilon isofonn) was mixed with the BR-101 (UCP-LA) in the presence of 10 micromoiar histones, 5 mM CaCl2, 1.2 μg/μl phosphatidyl-L-serine, 0.18 μg/μl 1,2-dioctanoyl-sn-glycerol (DAG), […], […] (pH 7.4), 0.8 tnIVI EDTA, 4 mM EGTA, 4% glycerol, 8 μg/ml aprotinin, 8 μ/ml leupeptin, and 2 mM benzamidine. 0.5 micro Ci [^y32P]ATP was added. The incubation mixture was incubated for 15 min at 37 degrees in a total volume of 10 microliters. The reaction was stopped by spotting the reaction mixtures on 1×2 cm strips of cellulose phosphate paper (Whatman P81) and immediately washing twice for 1 hr in 0.5% H3PO4. The cellulose phosphate strips were counted in a scintillation counter. In some experiments, phosphatidylserine, diacylglycerol, and/or calcium were removed.
(§2) Protein kinase C assay. Rat hippocampal cells were cultured and scraped in 0.2 ml homogenization buffer (20 triM Tris-HCl, pH 7.4, 50 mM NaF, 1 μg/ml leupeptin, and 0.1 mM PMSF) and homogenized by sonication in a Marsonix micro-probe sonicator (5 see, 10W). To measure PKC, 10 ul of cell homogenate or purified. PKC isozyme (purchased from Calbiochem) was incubated for 15 min at 37° C. in the presence of 10 μM histones, 4.89 mM CaCl2, 1.2 μg/μl phosphatidyl-L-serine, 0.18 μg/μl 1,2-dioctanoyl-sn-glycerol, 10 mM MgCl2, 20 mM HEPES (pH 7.4), 0.8 mM EDTA, 4 mM EGTA, 4% glycerol, 8 μg/ml aprotinin, 8 μg/ml leupeptin, and 2 mM benzamidine. 0.5 μCi [^γ-32P]ATP was added and ^32P-phosphoprotein formation was measured by adsorption onto phosphocellulose as described previously. Nelson and Alkon, J. Neurochemistry. 1995; 65: 2350-57. For measurements of activation by BR-101 (DCP-LA) and similar compounds, PKC activity was measured in the absence of diacylglycerol and phosphatidyl serine, as described by Kanno et al., and PKC δ, ε, η, and μ were measured in the absence of added EGTA and CaCl2, as described by Kanno et al., J. Lipid Res. 2006; 47: 1146-50. Low concentrations of Ca^2+ are used because high Ca^2+ interacts with the PKC phosphatidylserine binding site and prevents activation. For measurements of bryostatin activation, 1,2-diacylglycerol was omitted unless otherwise stated.
(§3) To determine their PKC isozyme specificity, the new compounds were preincubated with purified PKC for five minutes and the PKC activity was measured radiometrically.

[3] = molecular target: T2, PKCα (Homo sapiens, UniProt P17252); assay: Protein kinase C assay, recombinant PKC alpha; type: biochemical; conditions: data not shown
T2 construct: purchased Calbiochem
Procedure: as §1

[4] = molecular target: T3, PKCδ (Homo sapiens, UniProt Q05655); assay: Protein kinase C assay, purified PKC isozymes: PKCδ; type: biochemical; conditions: higher concentrations, about 1-100 μM; data not shown
T3 construct: purchased Calbiochem
T3 sequence (Q05655 whole entry): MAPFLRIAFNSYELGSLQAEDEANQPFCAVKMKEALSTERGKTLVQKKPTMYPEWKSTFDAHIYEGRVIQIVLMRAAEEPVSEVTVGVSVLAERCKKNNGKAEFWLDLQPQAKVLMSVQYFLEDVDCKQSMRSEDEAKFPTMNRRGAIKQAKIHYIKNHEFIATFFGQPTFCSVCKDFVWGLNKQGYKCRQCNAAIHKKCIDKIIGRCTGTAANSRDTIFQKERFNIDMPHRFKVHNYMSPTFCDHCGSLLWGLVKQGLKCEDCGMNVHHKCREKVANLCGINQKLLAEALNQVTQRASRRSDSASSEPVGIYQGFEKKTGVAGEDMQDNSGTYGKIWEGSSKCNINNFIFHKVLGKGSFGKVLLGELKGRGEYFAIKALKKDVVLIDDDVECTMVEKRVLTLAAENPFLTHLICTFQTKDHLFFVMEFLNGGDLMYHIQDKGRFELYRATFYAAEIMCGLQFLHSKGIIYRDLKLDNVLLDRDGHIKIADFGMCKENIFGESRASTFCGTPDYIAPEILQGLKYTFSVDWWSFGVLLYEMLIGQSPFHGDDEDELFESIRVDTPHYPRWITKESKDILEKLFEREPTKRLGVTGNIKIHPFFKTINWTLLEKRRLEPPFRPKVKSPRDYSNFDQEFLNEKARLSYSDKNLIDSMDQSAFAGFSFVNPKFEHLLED
Procedure: as §2, with “Low concentrations of Ca^2+ are used because high Ca^2+ interacts with the PKC phosphatidylserine binding site and prevents activation. For measurements of bryostatin activation, 1,2-diacylglycerol was omitted unless otherwise stated.” left out
as §3

| SMILES | reduction of cellular levels of Aβ [1] | activation of purified PKCε ([2]; FIG. 3) | concentration needed to activate PKC, times lower than for BR-101 (DCP-LA) ([2]; FIG. 3) | effect on PKCα [3] | effect on PKCδ [4] | activation of PKCε ([2]; at 10 μM, preincubated with purified PKC for five minutes) | activation of PKCε ([2]; purified PKCε, lowest concentration tested (10 nM), FIG. 2) |
| --- | --- | --- | --- | --- | --- | --- | --- |
| CCC1CC1CC1CC1CC1CC1CC1CC1CC1CC1CC1CC1CCC(=O)OC (stereo not shown) [BR-111, methyl-3-(2-((2-((2-((2-((2-((2-ethylcyclopropyl)methyl)cyclopropyl)methyl)cyclopropyl)methyl)-cyclopropyl)methyl)cyclopropyl)methyl)cyclopropyl)propanoate] | 45-63% | activated purified PKCε to a similar extent | approx. 100 times | – | – | – | – |
| CCCCCC1CC1CC1CC1CCCCCCCC(=O)O (stereo not shown) [BR-101, 8-[2-(2-pentyl-cyclopropylmethyl)-cyclopropyl]-octanoic acid] | – | – | – | not affected | partially inhibited | effective activator | 2.75 fold |
